Reference: US20260001928A1 (CORTERIA PHARMACEUTICALS, priority 2022, published 2026)
pEC50: −log10 of the molar value. *1 amine or outer side, *2 acyl side, *3 side chain or, on linkers, in order; H or OH if unused. Where a SMILES comes first, the peptide text is derived from it. Side-chain parts run from the residue outwards. [ ]: non-standard residue; d: D form. The star is where a group is joined. C18 diacid = O=C(O)CCCCCCCCCCCCCCCCC(=O)*; C16 diacid = O=C(O)CCCCCCCCCCCCCCC(=O)*; γGlu = O=C(O)[C@H](CCC(=O)[*:2])N[*:1]; C14 diacid = O=C(O)CCCCCCCCCCCCC(=O)*; NMeI = CC[C@H](C)[C@H](NC)C(=O)O; αMeL = CC(C)C[C@](C)(N)C(=O)O; Hexanoyl = CCCCCC(=O)*; Pentanoyl = CCCCC(=O)*; AEEA = NCCOCCOCC(=O)O; Aib = CC(C)(N)C(=O)O; Butyryl = CCCC(=O)*

Experiments:
human CRF2a receptor = target: T1, human CRF2a receptor (Homo sapiens, UniProt Q13324); experiment: Activity at human CRF2a receptor, cAMP functional assay in TeloHEAC cells; assay type: cell-based; details: TeloHEAC cells stably expressing human CRF2a receptor, relative to urocortin 2 (100 nM = 100%)
T1 construct: expressed in transfected cells; host or cells: TeloHEAC cells
T1 sequence (Q13324 1-411): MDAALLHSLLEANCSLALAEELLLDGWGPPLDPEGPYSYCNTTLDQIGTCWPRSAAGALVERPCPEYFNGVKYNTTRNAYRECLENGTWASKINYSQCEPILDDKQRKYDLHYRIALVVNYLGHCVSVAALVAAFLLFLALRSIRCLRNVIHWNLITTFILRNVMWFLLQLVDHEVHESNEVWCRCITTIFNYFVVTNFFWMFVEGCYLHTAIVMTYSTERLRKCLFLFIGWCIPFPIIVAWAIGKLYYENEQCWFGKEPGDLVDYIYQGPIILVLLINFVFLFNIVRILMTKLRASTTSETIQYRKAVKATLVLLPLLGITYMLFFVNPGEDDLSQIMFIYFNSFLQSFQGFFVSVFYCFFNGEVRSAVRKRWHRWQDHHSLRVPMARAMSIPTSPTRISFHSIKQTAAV
Outline: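 TeloHEAC cells stably expressing human CRF2a (10000 cells/well) were treated with 16-point 1:2 compound dilutions in HBSS/20 mM HEPES with IBMX for 30 min at 37° C. cAMP was read by HTRF (665/620 nm ratio). EC50 was the concentration giving 50% activation, with 100 nM urocortin 2 set as 100%.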

CFR1R receptor = target: T2, CFR1R receptor (Homo sapiens, UniProt P34998); experiment: Activity at anti-target CFR1R receptor, cAMP assay in CRF1R-overexpression CHO-K1 cells; assay type: cell-based; details: 100% = Sauvagine at 100 nM; for pEC50: cAMP
T2 construct: host or cells: CHO-K1 (clone 2)
T2 sequence (P34998 24-415): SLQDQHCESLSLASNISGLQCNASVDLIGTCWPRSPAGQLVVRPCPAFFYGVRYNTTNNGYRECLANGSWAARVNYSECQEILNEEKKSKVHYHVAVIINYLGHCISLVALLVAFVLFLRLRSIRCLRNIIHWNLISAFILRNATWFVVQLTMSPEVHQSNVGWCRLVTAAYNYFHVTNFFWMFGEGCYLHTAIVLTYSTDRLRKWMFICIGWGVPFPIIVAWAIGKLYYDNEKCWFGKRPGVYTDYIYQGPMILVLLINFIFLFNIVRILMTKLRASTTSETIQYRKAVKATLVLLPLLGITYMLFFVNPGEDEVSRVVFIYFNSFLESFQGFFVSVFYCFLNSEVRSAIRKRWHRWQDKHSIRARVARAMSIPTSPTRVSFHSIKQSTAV
Outline: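 cAMP readout in CRF1R-overexpressing CHO-K1 cells (clone 2), run as for the TeloHAEC assay at 4000 cells/well final. Cells came from cryopreserved banks. Sauvagine at 100 nM defined 100% activation.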

pEC50 (human CRF2a receptor) | Emax (% I) (CFR1R receptor) | pEC50 (CFR1R receptor) | SMILES
9.54 | 8 % I | < 6.60 | CCCCCC(=O)N[C@H](C(=O)N[C@@H](CC(C)C)C(=O)N[C@@H](CO)C(=O)N[C@@H](CC(C)C)C(=O)N[C@@H](CC(=O)O)C(=O)N[C@@H](C(=O)N1CCC[C@H]1C(=O)N[C@H](C(=O)N[C@@H](CCCCN)C(=O)N[C@@H](CC(C)C)C(=O)N[C@@H](CCCCNC(=O)CC[C@H](NC(=O)CCCCCCCCCCCCCCC(=O)O)C(=O)O)C(=O)N[C@@H](CCCCN)C(=O)N[C@H](C(=O)N[C@@H](CC(C)C)C(=O)N[C@@H](CC(C)C)C(=O)N[C@@H](CCC(=O)O)C(=O)N[C@@H](CCC(N)=O)C(=O)N[C@@H](CCC(=O)O)C(=O)N[C@@H](CCCCN)C(=O)N[C@@H](CCC(N)=O)C(=O)N[C@@H](CCCCN)C(=O)N[C@@H](CCCCN)C(=O)N[C@@H](CCC(N)=O)C(=O)N[C@@H](CCCNC(=N)N)C(=O)N[C@@H](CCC(=O)O)C(=O)N[C@@H](CCC(N)=O)C(=O)N[C@@H](C)C(=O)N[C@@H](CCC(=O)O)C(=O)N[C@H](C(=O)N[C@@H](CC(N)=O)C(=O)NC(C)(C)C(=O)N[C@@H](CCC(N)=O)C(=O)N[C@H](C(=O)N[C@@H](CC(C)C)C(=O)N[C@@H](C)C(=O)N[C@@H](CCC(N)=O)C(=O)N[C@H](C(N)=O)C(C)C)[C@@H](C)CC)[C@@H](C)O)[C@@H](C)CC)[C@@H](C)CC)C(C)C)C(C)C [compound 156] (Hexanoyl-VLSLD[dV]PIKLK([γGlu-C16 diacid])KILLEQEKQKKQREQAETN[Aib]QILAQV-NH2)
9.42 | 14 % I | < 6.60 | CCCCC(=O)N[C@H](C(=O)N[C@@H](CC(C)C)C(=O)N[C@@H](CO)C(=O)N[C@@H](CC(C)C)C(=O)N[C@@H](CC(=O)O)C(=O)N[C@@H](C(=O)N1CCC[C@H]1C(=O)N[C@H](C(=O)N[C@@H](CCCCN)C(=O)N[C@@](C)(CC(C)C)C(=O)N[C@@H](CCCCNC(=O)COCCOCCNC(=O)COCCOCCNC(=O)CC[C@H](NC(=O)CCCCCCCCCCCCCCCCC(=O)O)C(=O)O)C(=O)N[C@@H](CCCCN)C(=O)N[C@H](C(=O)N[C@@H](CC(C)C)C(=O)N[C@@H](CC(C)C)C(=O)N[C@@H](CCC(=O)O)C(=O)N[C@@H](CCC(N)=O)C(=O)N[C@@H](CCC(=O)O)C(=O)N[C@@H](CCCCN)C(=O)N[C@@H](CCC(N)=O)C(=O)N[C@@H](CCCCN)C(=O)N[C@@H](CCCCN)C(=O)N[C@@H](CCC(N)=O)C(=O)N[C@@H](CCCNC(=N)N)C(=O)N[C@@H](CCC(=O)O)C(=O)N[C@@H](CCC(N)=O)C(=O)N[C@@H](C)C(=O)N[C@@H](CCC(=O)O)C(=O)N[C@H](C(=O)N[C@@H](CC(N)=O)C(=O)N[C@H](C(=O)N[C@@H](CCC(N)=O)C(=O)N[C@H](C(=O)N[C@@H](CC(C)C)C(=O)N[C@@H](C)C(=O)N[C@@H](CCC(N)=O)C(=O)N[C@H](C(N)=O)C(C)C)[C@@H](C)CC)C(C)C)[C@@H](C)O)[C@@H](C)CC)[C@@H](C)CC)C(C)C)C(C)C [compound 124] (Pentanoyl-VLSLD[dV]PIK[αMeL]K([AEEA-AEEA-γGlu-C18 diacid])KILLEQEKQKKQREQAETNVQILAQV-NH2)
9.12 | 5 % I | < 6.60 | CCCC(=O)N[C@H](C(=O)N[C@@H](CC(C)C)C(=O)N[C@@H](CO)C(=O)N[C@@H](CC(C)C)C(=O)N[C@@H](CC(=O)O)C(=O)N[C@H](C(=O)N1CCC[C@H]1C(=O)N[C@H](C(=O)N[C@@H](CCCCN)C(=O)N[C@@H](CC(C)C)C(=O)N[C@@H](CCCCNC(=O)COCCOCCNC(=O)COCCOCCNC(=O)CC[C@H](NC(=O)CCCCCCCCCCCCCCCCC(=O)O)C(=O)O)C(=O)N[C@@H](CCCCN)C(=O)N[C@H](C(=O)N[C@@H](CC(C)C)C(=O)N[C@@H](CC(C)C)C(=O)N[C@@H](CCC(=O)O)C(=O)N[C@@H](CCC(N)=O)C(=O)N[C@@H](CCC(=O)O)C(=O)N[C@@H](CCCCN)C(=O)N[C@@H](CCC(N)=O)C(=O)N[C@@H](CCCCN)C(=O)N[C@@H](CCCCN)C(=O)N[C@@H](CCC(N)=O)C(=O)N[C@@H](CCCNC(=N)N)C(=O)N[C@@H](CCC(=O)O)C(=O)N[C@@H](CCC(N)=O)C(=O)N[C@@H](C)C(=O)N[C@@H](CCC(=O)O)C(=O)N[C@H](C(=O)N[C@@H](CC(N)=O)C(=O)N[C@@H](CCCCN)C(=O)N[C@@H](CCC(N)=O)C(=O)N[C@H](C(=O)N[C@@H](CC(C)C)C(=O)N[C@@H](C)C(=O)N[C@@H](CCC(N)=O)C(=O)N[C@H](C(N)=O)C(C)C)[C@@H](C)CC)[C@@H](C)O)[C@@H](C)CC)[C@@H](C)CC)C(C)C)C(C)C [compound 95] (Butyryl-VLSLDVPIKLK([AEEA-AEEA-γGlu-C18 diacid])KILLEQEKQKKQREQAETNKQILAQV-NH2)
8.24 | 0 % I | < 6.60 | CC[C@H](C)[C@H](NC(C)=O)C(=O)N[C@H](C(=O)N[C@@H](CC(C)C)C(=O)N[C@@H](CO)C(=O)N[C@@H](CC(C)C)C(=O)N[C@@H](CC(=O)O)C(=O)N[C@@H](C(=O)N1CCC[C@H]1C(=O)N[C@H](C(=O)N[C@@H](CCCCN)C(=O)N[C@@H](CC(C)C)C(=O)N[C@@H](CCCCNC(=O)COCCOCCNC(=O)COCCOCCNC(=O)CC[C@H](NC(=O)CCCCCCCCCCCCC(=O)O)C(=O)O)C(=O)N[C@@H](CCCCN)C(=O)N[C@H](C(=O)N[C@@H](CC(C)C)C(=O)N[C@@H](CC(C)C)C(=O)N[C@@H](CCC(=O)O)C(=O)N[C@@H](CCC(N)=O)C(=O)N[C@@H](CCC(=O)O)C(=O)N[C@@H](CCCCN)C(=O)N[C@@H](CCC(N)=O)C(=O)N[C@@H](CCCCN)C(=O)N[C@@H](CCCCN)C(=O)N[C@@H](CCC(N)=O)C(=O)N[C@@H](CCCNC(=N)N)C(=O)N[C@@H](CCC(=O)O)C(=O)N[C@@H](CCC(N)=O)C(=O)N[C@@H](C)C(=O)N[C@@H](CCC(=O)O)C(=O)N[C@H](C(=O)N[C@@H](CC(N)=O)C(=O)NC(C)(C)C(=O)N[C@@H](CCC(N)=O)C(=O)N[C@H](C(=O)N[C@@H](CC(C)C)C(=O)N[C@@H](C)C(=O)N[C@@H](CCC(N)=O)C(=O)N[C@H](C(N)=O)C(C)C)[C@@H](C)CC)[C@@H](C)O)[C@@H](C)CC)[C@@H](C)CC)C(C)C)C(C)C [compound 171] (Ac-IVLSLD[dV]PIKLK([AEEA-AEEA-γGlu-C14 diacid])KILLEQEKQKKQREQAETN[Aib]QILAQV-NH2)
9.43 | 0 % I | < 6.60 | CC[C@H](C)[C@H](NC)C(=O)N[C@H](C(=O)N[C@@H](CC(C)C)C(=O)N[C@@H](CO)C(=O)N[C@@H](CC(C)C)C(=O)N[C@@H](CC(=O)O)C(=O)N[C@@H](C(=O)N1CCC[C@H]1C(=O)N[C@H](C(=O)N[C@@H](CCCCN)C(=O)N[C@@H](CC(C)C)C(=O)N[C@@H](CCCCNC(=O)COCCOCCNC(=O)COCCOCCNC(=O)CC[C@H](NC(=O)CCCCCCCCCCCCCCCCC(=O)O)C(=O)O)C(=O)N[C@@H](CCCCN)C(=O)N[C@H](C(=O)N[C@@H](CC(C)C)C(=O)N[C@@H](CC(C)C)C(=O)N[C@@H](CCC(=O)O)C(=O)N[C@@H](CCC(N)=O)C(=O)N[C@@H](CCC(=O)O)C(=O)N[C@@H](CCCCN)C(=O)N[C@@H](CCC(N)=O)C(=O)N[C@@H](CCCCN)C(=O)N[C@@H](CCCCN)C(=O)N[C@@H](CCC(N)=O)C(=O)N[C@@H](CCCNC(=N)N)C(=O)N[C@@H](CCC(=O)O)C(=O)N[C@@H](CCC(N)=O)C(=O)N[C@@H](C)C(=O)N[C@@H](CCC(=O)O)C(=O)N[C@H](C(=O)N[C@@H](CC(N)=O)C(=O)N[C@@H](CCC(=O)O)C(=O)N[C@@H](CCC(N)=O)C(=O)N[C@H](C(=O)N[C@@H](CC(C)C)C(=O)N[C@@H](C)C(=O)N[C@@H](CCC(N)=O)C(=O)N[C@H](C(N)=O)C(C)C)[C@@H](C)CC)[C@@H](C)O)[C@@H](C)CC)[C@@H](C)CC)C(C)C)C(C)C [compound 116] (H-[NMeI]VLSLD[dV]PIKLK([AEEA-AEEA-γGlu-C18 diacid])KILLEQEKQKKQREQAETNEQILAQV-NH2)
